Common to all, as to parameters: recommended concentration 1 uM
The target in test [1] is T1, Hepatocyte nuclear factor 4-alpha (Homo sapiens) (UniProt P41235).
T1 sequence (whole entry): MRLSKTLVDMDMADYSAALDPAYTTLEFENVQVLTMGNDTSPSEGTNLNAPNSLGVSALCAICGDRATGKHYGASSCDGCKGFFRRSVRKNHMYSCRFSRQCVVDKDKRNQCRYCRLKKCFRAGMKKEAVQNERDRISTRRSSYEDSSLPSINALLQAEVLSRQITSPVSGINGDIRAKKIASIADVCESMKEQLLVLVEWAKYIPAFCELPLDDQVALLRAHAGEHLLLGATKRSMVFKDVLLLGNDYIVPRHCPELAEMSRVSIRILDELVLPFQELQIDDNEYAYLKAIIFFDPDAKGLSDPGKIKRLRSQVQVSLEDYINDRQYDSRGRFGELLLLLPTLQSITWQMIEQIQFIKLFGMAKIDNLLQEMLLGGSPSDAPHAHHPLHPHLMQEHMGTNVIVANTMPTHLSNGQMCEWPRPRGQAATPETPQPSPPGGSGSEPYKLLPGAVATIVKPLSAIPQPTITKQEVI
Put plainly: Selectivity interaction (Reporter gene assay) EUB0000576a HNF4A. (In general: Reporter assays use an easily measured gene product as a stand-in for the process of interest.)

In test [2] the target is T2, Nuclear receptor subfamily 2 group C member 1 (Homo sapiens) (UniProt P13056).
T2 sequence (whole entry): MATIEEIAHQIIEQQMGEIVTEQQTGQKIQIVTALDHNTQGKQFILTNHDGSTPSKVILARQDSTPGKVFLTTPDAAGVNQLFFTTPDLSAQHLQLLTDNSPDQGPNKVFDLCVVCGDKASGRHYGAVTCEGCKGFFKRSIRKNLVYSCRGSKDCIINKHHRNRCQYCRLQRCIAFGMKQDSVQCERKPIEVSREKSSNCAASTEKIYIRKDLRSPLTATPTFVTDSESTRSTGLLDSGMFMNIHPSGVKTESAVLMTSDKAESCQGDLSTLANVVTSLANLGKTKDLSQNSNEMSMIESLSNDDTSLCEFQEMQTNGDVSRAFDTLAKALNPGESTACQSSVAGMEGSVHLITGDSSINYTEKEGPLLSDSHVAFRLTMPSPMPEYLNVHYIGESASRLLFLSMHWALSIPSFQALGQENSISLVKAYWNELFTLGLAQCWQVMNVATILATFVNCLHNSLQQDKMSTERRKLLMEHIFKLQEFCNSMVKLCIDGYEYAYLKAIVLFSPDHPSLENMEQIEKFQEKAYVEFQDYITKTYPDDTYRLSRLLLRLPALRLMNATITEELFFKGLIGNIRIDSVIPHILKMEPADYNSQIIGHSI
As to the kind of experiment: Selectivity interaction (Reporter gene assay) EUB0000576a NR2C1.

For test [3], the target named is Nuclear receptor subfamily 2 group E member 1 (Homo sapiens) (UniProt Q9Y466). Put plainly: Selectivity interaction (Reporter gene assay) EUB0000576a NR2E1.
Nuclear receptor subfamily 2 group E member 1 (Homo sapiens), sequence (Q9Y466 whole entry): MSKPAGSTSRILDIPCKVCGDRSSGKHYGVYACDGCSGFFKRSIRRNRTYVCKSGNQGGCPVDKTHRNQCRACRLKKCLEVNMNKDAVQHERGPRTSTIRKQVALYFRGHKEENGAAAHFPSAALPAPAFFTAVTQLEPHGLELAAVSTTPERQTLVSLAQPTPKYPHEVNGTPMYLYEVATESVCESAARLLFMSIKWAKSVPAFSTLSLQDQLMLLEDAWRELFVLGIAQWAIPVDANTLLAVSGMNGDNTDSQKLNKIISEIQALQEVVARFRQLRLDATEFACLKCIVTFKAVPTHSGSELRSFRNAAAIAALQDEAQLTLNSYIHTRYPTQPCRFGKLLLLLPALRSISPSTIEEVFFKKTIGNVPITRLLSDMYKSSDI
Test [4] concerns the target Nuclear receptor subfamily 4immunitygroup A member 1 (Homo sapiens) (UniProt P22736). Put plainly: Selectivity interaction (Reporter gene assay) EUB0000576a NR4A1.
For test [5], the target named is Steroidogenic factor 1 (Homo sapiens) (UniProt Q13285). As to the kind of experiment: Selectivity interaction (Reporter gene assay) EUB0000576a NR5A1.
Steroidogenic factor 1 (Homo sapiens), sequence (Q13285 whole entry): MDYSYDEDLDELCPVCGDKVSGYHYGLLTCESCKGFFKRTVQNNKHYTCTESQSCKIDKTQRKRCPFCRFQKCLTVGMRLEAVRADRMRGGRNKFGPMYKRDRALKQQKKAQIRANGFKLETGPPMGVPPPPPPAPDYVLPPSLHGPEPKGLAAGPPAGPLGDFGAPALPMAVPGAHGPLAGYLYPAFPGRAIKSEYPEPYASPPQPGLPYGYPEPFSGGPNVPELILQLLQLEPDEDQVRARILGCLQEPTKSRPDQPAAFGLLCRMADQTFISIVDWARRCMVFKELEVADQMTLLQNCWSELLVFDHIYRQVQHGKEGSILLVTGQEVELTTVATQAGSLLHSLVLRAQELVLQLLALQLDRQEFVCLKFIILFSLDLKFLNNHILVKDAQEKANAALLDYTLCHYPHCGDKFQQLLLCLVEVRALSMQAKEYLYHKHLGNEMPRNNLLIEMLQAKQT
In test [6] the target is T3, Alpha trans-inducing protein (Human alphaherpesvirus 1) (UniProt A0A5J6DW59). Put plainly: Selectivity interaction (Reporter gene assay) EUB0000576a UL48.
T3 sequence (A0A5J6DW59 as listed by the source): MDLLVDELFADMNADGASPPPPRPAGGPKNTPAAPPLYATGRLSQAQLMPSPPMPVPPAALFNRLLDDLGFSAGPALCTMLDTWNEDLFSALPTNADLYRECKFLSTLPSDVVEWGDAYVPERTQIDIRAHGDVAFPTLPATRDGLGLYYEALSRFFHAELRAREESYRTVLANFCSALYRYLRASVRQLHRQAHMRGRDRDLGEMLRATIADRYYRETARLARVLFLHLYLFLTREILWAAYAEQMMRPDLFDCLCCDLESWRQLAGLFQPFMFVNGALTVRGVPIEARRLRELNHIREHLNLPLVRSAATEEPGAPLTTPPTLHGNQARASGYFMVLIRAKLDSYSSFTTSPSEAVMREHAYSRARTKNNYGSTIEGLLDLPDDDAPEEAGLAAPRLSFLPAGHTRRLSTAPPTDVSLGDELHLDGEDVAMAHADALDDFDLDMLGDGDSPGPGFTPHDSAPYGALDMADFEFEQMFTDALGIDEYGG
Test [7] concerns the target T4, Retinoic acid receptor RXR-alpha (Homo sapiens) (UniProt P19793).
T4 sequence (whole entry): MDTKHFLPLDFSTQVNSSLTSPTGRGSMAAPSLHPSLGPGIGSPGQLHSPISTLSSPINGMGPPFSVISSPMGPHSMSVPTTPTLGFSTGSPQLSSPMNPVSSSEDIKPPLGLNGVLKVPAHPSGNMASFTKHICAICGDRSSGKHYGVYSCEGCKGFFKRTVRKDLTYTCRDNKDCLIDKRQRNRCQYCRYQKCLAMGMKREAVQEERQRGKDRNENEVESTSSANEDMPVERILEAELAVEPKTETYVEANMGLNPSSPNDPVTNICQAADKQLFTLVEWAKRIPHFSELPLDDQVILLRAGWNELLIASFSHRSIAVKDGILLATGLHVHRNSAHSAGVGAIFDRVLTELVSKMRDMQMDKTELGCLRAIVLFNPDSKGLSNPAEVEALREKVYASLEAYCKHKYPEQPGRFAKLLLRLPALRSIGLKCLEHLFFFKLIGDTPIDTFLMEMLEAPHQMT
As to the kind of experiment: Selectivity interaction (Reporter gene assay) EUB0000576a RXRA. The note with it: reference bexarotene 1 uM, Selectivity number of off-targets 0.0, Selectivity number of targets 1.0, Source Knowledge inhouse.

Test [8] concerns the target T1, Hepatocyte nuclear factor 4-alpha (Homo sapiens). As to the kind of experiment: Selectivity interaction (Reporter gene assay) EUB0000573a HNF4A.
Test [9] addresses T2, Nuclear receptor subfamily 2 group C member 1 (Homo sapiens). Put plainly: Selectivity interaction (Reporter gene assay) EUB0000573a NR2C1.
For test [10], the target named is Nuclear receptor subfamily 2 group E member 1 (Homo sapiens) (UniProt Q9Y466). As to the kind of experiment: Selectivity interaction (Reporter gene assay) EUB0000573a NR2E1.
Test [11] addresses Nuclear receptor subfamily 4immunitygroup A member 1 (Homo sapiens) (UniProt P22736). As to the kind of experiment: Selectivity interaction (Reporter gene assay) EUB0000573a NR4A1.
Test [12] addresses Steroidogenic factor 1 (Homo sapiens) (UniProt Q13285). Put plainly: Selectivity interaction (Reporter gene assay) EUB0000573a NR5A1.
In test [13] the target is T3, Alpha trans-inducing protein (Human alphaherpesvirus 1). Put plainly: Selectivity interaction (Reporter gene assay) EUB0000573a UL48.
Test [14] deals with T4, Retinoic acid receptor RXR-alpha (Homo sapiens). As to the kind of experiment: Selectivity interaction (Reporter gene assay) EUB0000573a RXRA. The note with it: reference bexarotene 1 uM, Selectivity number of off-targets 0.0, Selectivity number of targets 1.0, Source Knowledge inhouse.
Test [15] concerns the target Peroxisome proliferator-activated receptor alpha (Homo sapiens) (UniProt Q07869). Put plainly: Selectivity interaction (Reporter gene assay) EUB0000569a PPARA. Particulars: screened at recom. conc., Selectivity number of off-targets 2.0, Selectivity number of targets 19.0, Source Knowledge inhouse.
Test [16] concerns the target T5, Peroxisome proliferator-activated receptor gamma (Homo sapiens) (UniProt P37231).
T5 sequence (whole entry): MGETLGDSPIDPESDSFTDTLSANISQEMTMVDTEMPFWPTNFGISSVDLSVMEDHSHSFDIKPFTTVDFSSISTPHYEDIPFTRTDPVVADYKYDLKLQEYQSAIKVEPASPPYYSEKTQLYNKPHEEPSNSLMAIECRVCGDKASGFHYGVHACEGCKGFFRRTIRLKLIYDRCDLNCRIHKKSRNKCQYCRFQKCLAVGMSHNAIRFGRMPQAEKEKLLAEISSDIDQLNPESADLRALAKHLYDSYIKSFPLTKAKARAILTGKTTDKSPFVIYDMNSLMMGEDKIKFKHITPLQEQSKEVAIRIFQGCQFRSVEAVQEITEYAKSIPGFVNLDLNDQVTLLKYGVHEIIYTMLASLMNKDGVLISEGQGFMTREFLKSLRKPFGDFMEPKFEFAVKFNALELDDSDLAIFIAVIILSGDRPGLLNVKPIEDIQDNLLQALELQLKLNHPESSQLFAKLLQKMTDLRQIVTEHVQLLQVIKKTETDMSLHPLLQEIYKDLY
As to the kind of experiment: Selectivity interaction (Reporter gene assay) EUB0000569a PPARG. The note with it: screened at recom. conc., Selectivity number of off-targets 2.0, Selectivity number of targets 19.0, Source Knowledge inhouse.

In test [17] the target is T1, Hepatocyte nuclear factor 4-alpha (Homo sapiens). As to the kind of experiment: Selectivity interaction (Reporter gene assay) EUB0000569a HNF4A.
In test [18] the target is T2, Nuclear receptor subfamily 2 group C member 1 (Homo sapiens). As to the kind of experiment: Selectivity interaction (Reporter gene assay) EUB0000569a NR2C1.
The target in test [19] is Nuclear receptor subfamily 2 group E member 1 (Homo sapiens) (UniProt Q9Y466). Put plainly: Selectivity interaction (Reporter gene assay) EUB0000569a NR2E1.
The target in test [20] is Nuclear receptor subfamily 4immunitygroup A member 1 (Homo sapiens) (UniProt P22736). As to the kind of experiment: Selectivity interaction (Reporter gene assay) EUB0000569a NR4A1.
Nuclear receptor subfamily 4immunitygroup A member 1 (Homo sapiens), sequence (P22736 whole entry): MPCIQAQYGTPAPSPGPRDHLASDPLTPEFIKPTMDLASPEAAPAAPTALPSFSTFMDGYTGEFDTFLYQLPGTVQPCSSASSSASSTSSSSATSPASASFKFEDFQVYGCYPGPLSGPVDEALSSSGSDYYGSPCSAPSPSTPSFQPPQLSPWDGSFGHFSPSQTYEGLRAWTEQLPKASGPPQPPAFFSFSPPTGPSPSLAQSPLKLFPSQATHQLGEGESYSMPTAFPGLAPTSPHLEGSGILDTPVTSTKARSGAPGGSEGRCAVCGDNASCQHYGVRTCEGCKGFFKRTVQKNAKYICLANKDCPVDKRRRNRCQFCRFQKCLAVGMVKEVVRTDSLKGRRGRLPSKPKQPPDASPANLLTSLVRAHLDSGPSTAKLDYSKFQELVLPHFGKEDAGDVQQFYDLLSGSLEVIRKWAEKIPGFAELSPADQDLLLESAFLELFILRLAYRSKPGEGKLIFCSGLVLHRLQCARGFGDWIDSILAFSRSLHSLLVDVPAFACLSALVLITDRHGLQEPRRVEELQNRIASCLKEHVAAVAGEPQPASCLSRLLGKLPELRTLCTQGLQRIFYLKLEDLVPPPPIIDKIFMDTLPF
Test [21] deals with Steroidogenic factor 1 (Homo sapiens) (UniProt Q13285). As to the kind of experiment: Selectivity interaction (Reporter gene assay) EUB0000569a NR5A1.
Test [22] deals with T3, Alpha trans-inducing protein (Human alphaherpesvirus 1). Put plainly: Selectivity interaction (Reporter gene assay) EUB0000569a UL48.
Test [23] concerns the target T4, Retinoic acid receptor RXR-alpha (Homo sapiens). As to the kind of experiment: Selectivity interaction (Reporter gene assay) EUB0000569a RXRA.
The target of test [24] is T1, Hepatocyte nuclear factor 4-alpha (Homo sapiens). As to the kind of experiment: Selectivity interaction (Reporter gene assay) EUB0000570a HNF4A.
In test [25] the target is T2, Nuclear receptor subfamily 2 group C member 1 (Homo sapiens). As to the kind of experiment: Selectivity interaction (Reporter gene assay) EUB0000570a NR2C1.
The target of test [26] is Nuclear receptor subfamily 2 group E member 1 (Homo sapiens) (UniProt Q9Y466). As to the kind of experiment: Selectivity interaction (Reporter gene assay) EUB0000570a NR2E1.
For test [27], the target named is Nuclear receptor subfamily 4immunitygroup A member 1 (Homo sapiens) (UniProt P22736). As to the kind of experiment: Selectivity interaction (Reporter gene assay) EUB0000570a NR4A1.
Test [28] concerns the target Steroidogenic factor 1 (Homo sapiens) (UniProt Q13285). As to the kind of experiment: Selectivity interaction (Reporter gene assay) EUB0000570a NR5A1.
The target of test [29] is T3, Alpha trans-inducing protein (Human alphaherpesvirus 1). Put plainly: Selectivity interaction (Reporter gene assay) EUB0000570a UL48.
In test [30] the target is T4, Retinoic acid receptor RXR-alpha (Homo sapiens). Put plainly: Selectivity interaction (Reporter gene assay) EUB0000570a RXRA. Particulars: reference bexarotene 1 uM, Selectivity number of off-targets 0.0, Selectivity number of targets 1.0, Source Knowledge inhouse.

We go through 4 compounds from ChEMBL document CHEMBL5715260, “Selectivity Literature for EUbOPEN Chemogenomic Library” (2024).

Peroxisome proliferator-activated receptor alpha (Homo sapiens), sequence (Q07869 whole entry): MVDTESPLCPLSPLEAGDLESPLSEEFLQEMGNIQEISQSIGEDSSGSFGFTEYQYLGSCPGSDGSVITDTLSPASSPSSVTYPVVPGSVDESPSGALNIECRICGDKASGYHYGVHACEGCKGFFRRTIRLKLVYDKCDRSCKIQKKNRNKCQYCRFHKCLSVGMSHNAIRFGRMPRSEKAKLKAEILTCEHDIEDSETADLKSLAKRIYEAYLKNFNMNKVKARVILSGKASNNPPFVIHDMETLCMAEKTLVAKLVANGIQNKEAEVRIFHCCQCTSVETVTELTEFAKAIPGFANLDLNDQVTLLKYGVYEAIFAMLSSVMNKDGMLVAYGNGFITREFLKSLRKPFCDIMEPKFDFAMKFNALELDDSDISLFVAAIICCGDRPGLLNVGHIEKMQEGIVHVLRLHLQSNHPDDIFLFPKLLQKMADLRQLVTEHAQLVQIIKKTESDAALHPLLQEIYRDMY

For the compound `CCOP(=O)(OCC)C(=Cc1cc(C(C)(C)C)c(O)c(C(C)(C)C)c1)P(=O)(OCC)OCC`, the figures for the Remaining activity in test [1], in test [3] and in test [4] were 0.935, 0.795 and 0.959, respectively. Also, the Fold activation in test [2] was 1.37; in [5], 1.01. In test [6], this compound displayed a P-value of 0.0136. Besides, the Relative activation in test [7] turned out to be 0.581%.
On to `CC(C)OC(=O)C1=CN(C(=O)c2ccc(F)c(F)c2)CC(C)(C)c2c1[nH]c1ccccc21`, for which the Fold activation in test [8] turned out to be 1.02; in test [9], 1.3; in [10], 1.46; in test [11] it was 1.03; in test [12], 1.12. In test [13], this compound had a P-value of 1.36e-05. This compound yielded a Relative activation in test [14] of 0.671%.
In the case of `Cc1cc(SCc2sc(-c3ccc(C(F)(F)F)c(F)c3)nc2C)ccc1OCC(=O)O`, the Fold activation in [15] was found to be 14.8; in test [16], 10.5; in test [17], 1.11; in test [18] it was 1.31; in test [19] it was 1.36; in test [20], 1.17. The compound also came in with a Fold activation in test [21] of 1.02. For the same compound, the P-value in [22] amounted to 0.0031. Further, the Relative activation in [23] came out at 0.693%.
In the case of `CN(CCOc1ccc(C[C@H](Nc2ccccc2C(=O)c2ccccc2)C(=O)O)cc1)c1ccccn1`, the Remaining activity turned out to be 0.831 in [24], 0.776 in [26], 0.85 in [27] and 0.849 in test [28]. In addition, the Fold activation in test [25] amounted to 1.03. For the same compound, in test [29], the P-value was determined as 1.12e-05. Moreover, the Relative activation in test [30] turned out to be 0.731%.
